This is an account of results in ChEMBL document CHEMBL4325871 (Eur J Med Chem, 2019).

The target in assay [1] is T1, Homeodomain-interacting protein kinase 1 (Homo sapiens, UniProt Q86Z02).
The target in assay [2] is T1, Homeodomain-interacting protein kinase 1. Description: Inhibition of human HIPK1 assessed as residual activity at 100 uM using MBP as substrate by [gamma-33P]-ATP assay relative to control.
The target in assay [3] is T2, Mitogen-activated protein kinase kinase kinase kinase 1 (Homo sapiens, UniProt Q92918). The assay can be described thus: Inhibition of human HPK1 assessed as residual activity at 100 uM using MBP as substrate by [gamma-33P]-ATP assay relative to control.
For assay [4], the target named is T3, Serine/threonine-protein kinase VRK2 (Homo sapiens, UniProt Q86Y07).
T3 sequence (Q86Y07 whole entry): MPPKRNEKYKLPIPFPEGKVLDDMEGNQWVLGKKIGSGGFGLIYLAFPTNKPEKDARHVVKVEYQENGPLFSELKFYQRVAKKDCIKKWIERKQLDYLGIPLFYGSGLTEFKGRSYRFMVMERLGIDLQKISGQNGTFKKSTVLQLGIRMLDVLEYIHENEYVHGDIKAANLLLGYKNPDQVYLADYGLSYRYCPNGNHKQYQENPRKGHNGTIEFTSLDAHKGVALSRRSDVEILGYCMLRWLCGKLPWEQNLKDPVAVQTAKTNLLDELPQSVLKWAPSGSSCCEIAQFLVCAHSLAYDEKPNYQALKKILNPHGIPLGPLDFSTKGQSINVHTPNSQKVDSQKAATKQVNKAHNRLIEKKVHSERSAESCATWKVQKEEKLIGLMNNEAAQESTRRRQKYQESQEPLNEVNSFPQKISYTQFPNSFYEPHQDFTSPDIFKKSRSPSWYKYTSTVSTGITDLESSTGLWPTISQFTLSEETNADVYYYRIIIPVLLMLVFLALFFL
Assay [5] concerns the target Serine/threonine-protein kinase VRK1 (Homo sapiens, UniProt Q99986).
The target in assay [6] is T4, Mitogen-activated protein kinase kinase kinase 8 (Homo sapiens, UniProt P41279). Description: Inhibition of human COT1 assessed as residual activity at 100 uM using MEK1 as substrate by [gamma-33P]-ATP assay relative to control.
T4 sequence (P41279 whole entry): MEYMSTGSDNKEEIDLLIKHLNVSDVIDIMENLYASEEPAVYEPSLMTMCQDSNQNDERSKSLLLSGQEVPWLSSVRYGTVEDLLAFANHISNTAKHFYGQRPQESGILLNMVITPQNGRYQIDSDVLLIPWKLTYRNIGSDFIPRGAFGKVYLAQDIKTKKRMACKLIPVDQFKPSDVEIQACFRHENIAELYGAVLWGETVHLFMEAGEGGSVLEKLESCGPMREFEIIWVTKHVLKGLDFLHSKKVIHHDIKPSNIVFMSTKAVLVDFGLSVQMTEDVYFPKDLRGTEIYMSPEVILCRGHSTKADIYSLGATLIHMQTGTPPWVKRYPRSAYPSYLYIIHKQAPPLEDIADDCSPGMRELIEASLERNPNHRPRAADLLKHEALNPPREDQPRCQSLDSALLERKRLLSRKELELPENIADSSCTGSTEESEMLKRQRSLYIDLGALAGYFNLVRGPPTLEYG
The target in assay [7] is T3, Serine/threonine-protein kinase VRK2. Description: Inhibition of human VRK2 assessed as residual activity at 100 uM using casein as substrate by [gamma-33P]-ATP assay relative to control.
Assay [8] addresses T4, Mitogen-activated protein kinase kinase kinase 8.
Assay [9] addresses T2, Mitogen-activated protein kinase kinase kinase kinase 1.
Assay [10] has as its target Tyrosine-protein kinase JAK3 (Homo sapiens) (UniProt P52333). Description: Inhibition of human JAK3 assessed as residual activity at 100 uM using poly[Glu:Tyr] (4:1) as substrate by [gamma-33P]-ATP assay relative to control.
The target of assay [11] is Wee1-like protein kinase (Homo sapiens) (UniProt P30291). The assay can be described thus: Inhibition of human WEE1 assessed as residual activity at 100 uM using MBP as substrate by [gamma-33P]-ATP assay relative to control.
The target of assay [12] is T5, Serine/threonine-protein kinase WNK3 (Homo sapiens, UniProt Q9BYP7). The assay can be described thus: Inhibition of human WNK3 assessed as residual activity at 100 uM using MBP as substrate by [gamma-33P]-ATP assay relative to control.
T5 sequence (Q9BYP7 whole entry): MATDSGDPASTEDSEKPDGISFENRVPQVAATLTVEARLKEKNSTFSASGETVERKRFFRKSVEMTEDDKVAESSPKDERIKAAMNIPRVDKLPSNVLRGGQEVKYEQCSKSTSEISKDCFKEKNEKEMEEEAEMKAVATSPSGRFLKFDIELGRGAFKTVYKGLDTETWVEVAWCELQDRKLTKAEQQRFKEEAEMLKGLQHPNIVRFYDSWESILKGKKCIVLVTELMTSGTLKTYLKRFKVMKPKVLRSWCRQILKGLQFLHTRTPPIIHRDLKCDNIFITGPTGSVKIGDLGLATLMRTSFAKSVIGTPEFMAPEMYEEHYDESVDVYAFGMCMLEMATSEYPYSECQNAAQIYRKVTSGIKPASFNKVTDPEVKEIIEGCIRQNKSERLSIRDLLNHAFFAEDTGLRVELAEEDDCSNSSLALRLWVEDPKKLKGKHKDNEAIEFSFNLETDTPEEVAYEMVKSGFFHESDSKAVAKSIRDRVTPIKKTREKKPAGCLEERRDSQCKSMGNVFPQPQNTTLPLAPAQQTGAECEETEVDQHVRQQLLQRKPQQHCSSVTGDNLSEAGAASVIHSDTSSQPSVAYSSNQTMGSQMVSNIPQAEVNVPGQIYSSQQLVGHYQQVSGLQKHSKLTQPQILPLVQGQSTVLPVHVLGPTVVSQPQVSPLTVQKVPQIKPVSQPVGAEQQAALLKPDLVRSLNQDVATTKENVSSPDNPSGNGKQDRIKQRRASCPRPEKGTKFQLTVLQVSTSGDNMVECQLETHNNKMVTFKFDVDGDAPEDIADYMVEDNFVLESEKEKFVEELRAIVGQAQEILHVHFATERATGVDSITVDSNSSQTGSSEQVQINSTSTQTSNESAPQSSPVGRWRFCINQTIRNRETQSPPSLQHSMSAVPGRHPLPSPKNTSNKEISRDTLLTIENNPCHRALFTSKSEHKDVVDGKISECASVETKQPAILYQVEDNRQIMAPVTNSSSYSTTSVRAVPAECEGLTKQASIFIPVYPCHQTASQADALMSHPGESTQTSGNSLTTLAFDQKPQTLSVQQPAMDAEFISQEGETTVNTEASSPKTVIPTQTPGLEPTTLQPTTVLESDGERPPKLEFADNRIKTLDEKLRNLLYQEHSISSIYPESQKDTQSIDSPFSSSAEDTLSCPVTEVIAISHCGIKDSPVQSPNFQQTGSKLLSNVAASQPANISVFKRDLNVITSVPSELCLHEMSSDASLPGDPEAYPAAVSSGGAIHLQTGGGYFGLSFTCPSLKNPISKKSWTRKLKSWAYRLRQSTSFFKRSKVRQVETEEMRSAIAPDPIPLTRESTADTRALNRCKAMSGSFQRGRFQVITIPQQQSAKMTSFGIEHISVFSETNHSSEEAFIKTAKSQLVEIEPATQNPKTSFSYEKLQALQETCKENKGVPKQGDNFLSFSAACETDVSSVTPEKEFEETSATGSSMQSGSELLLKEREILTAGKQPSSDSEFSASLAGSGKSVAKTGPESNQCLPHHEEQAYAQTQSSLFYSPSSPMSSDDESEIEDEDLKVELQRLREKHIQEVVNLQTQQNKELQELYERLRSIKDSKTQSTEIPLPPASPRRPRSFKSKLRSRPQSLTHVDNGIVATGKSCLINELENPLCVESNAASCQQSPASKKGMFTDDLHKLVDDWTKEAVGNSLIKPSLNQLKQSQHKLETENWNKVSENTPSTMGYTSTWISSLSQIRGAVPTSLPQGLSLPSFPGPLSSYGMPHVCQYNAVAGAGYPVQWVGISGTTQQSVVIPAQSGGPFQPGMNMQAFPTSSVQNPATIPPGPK
For assay [13], the target named is T5, Serine/threonine-protein kinase WNK3.
The target of assay [14] is T6, Tau-tubulin kinase 1 (Homo sapiens, UniProt Q5TCY1).
T6 sequence (Q5TCY1 whole entry): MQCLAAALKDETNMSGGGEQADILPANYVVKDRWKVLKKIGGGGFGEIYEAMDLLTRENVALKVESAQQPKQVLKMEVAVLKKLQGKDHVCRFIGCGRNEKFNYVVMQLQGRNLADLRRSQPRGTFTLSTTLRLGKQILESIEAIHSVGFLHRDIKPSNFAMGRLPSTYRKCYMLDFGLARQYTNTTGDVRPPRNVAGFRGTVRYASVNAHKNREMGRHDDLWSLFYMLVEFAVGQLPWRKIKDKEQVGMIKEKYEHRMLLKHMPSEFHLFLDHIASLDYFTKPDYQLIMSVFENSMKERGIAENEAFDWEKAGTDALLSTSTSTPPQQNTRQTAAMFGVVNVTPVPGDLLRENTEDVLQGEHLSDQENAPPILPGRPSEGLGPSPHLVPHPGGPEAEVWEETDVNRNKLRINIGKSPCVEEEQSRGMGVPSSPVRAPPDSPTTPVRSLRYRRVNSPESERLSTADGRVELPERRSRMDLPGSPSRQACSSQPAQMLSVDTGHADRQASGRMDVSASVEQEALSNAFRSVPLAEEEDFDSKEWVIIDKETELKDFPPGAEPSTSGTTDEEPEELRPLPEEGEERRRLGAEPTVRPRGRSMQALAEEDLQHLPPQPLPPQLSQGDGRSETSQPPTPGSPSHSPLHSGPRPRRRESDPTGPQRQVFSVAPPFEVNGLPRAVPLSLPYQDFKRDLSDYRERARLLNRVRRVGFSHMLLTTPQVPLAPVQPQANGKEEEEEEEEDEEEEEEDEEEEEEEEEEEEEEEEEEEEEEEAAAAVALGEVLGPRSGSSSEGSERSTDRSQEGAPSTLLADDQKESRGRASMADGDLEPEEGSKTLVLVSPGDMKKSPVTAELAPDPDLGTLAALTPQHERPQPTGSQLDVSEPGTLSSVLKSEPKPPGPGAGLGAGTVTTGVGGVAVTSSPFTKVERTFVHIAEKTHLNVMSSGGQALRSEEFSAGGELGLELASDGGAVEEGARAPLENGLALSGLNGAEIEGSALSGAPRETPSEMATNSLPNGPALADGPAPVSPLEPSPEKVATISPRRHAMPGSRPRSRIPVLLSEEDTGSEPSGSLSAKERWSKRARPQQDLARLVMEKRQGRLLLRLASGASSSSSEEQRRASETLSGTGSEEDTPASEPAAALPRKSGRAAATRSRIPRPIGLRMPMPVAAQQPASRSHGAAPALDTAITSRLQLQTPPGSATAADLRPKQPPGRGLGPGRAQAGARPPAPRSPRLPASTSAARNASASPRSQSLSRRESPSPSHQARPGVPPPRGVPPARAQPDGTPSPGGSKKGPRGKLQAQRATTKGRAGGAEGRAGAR
For assay [15], the target named is T7, Serine/threonine-protein kinase Nek6 (Homo sapiens, UniProt Q9HC98).
T7 sequence (Q9HC98 whole entry): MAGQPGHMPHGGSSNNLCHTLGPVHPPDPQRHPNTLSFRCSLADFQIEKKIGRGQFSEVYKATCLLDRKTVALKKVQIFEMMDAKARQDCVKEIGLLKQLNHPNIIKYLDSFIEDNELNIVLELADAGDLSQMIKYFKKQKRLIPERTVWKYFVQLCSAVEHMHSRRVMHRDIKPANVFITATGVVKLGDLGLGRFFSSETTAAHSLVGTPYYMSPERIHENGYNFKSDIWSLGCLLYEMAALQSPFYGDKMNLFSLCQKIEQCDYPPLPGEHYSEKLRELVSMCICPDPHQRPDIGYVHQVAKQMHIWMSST
Assay [16] addresses T7, Serine/threonine-protein kinase Nek6. Description: Inhibition of human NEK6 assessed as residual activity at 100 uM using casein as substrate by [gamma-33P]-ATP assay relative to control.
Assay [17] deals with T8, Serine/threonine-protein kinase Nek7 (Homo sapiens, UniProt Q8TDX7). Description: Inhibition of human NEK7 assessed as residual activity at 100 uM using casein as substrate by [gamma-33P]-ATP assay relative to control.
For assay [18], the target named is T8, Serine/threonine-protein kinase Nek7.
For assay [19], the target named is T9, Casein kinase II subunit alpha (Homo sapiens, UniProt P68400).
The target in assay [20] is Serine/threonine-protein kinase A-Raf (Homo sapiens, UniProt P10398).
Assay [21] has as its target T10, Mitogen-activated protein kinase kinase kinase 20 (Homo sapiens, UniProt Q9NYL2).
In assay [22] the target is Dual specificity tyrosine-phosphorylation-regulated kinase 4 (Homo sapiens, UniProt Q9NR20).
Assay [23] deals with T11, Receptor-interacting serine/threonine-protein kinase 3 (Homo sapiens, UniProt Q9Y572). The assay can be described thus: Inhibition of human RIPK3 assessed as residual activity at 100 uM using MBP as substrate by [gamma-33P]-ATP assay relative to control.
In assay [24] the target is T12, Serine/threonine-protein kinase A-Raf (Homo sapiens) (UniProt P10398).
T12 sequence (whole entry): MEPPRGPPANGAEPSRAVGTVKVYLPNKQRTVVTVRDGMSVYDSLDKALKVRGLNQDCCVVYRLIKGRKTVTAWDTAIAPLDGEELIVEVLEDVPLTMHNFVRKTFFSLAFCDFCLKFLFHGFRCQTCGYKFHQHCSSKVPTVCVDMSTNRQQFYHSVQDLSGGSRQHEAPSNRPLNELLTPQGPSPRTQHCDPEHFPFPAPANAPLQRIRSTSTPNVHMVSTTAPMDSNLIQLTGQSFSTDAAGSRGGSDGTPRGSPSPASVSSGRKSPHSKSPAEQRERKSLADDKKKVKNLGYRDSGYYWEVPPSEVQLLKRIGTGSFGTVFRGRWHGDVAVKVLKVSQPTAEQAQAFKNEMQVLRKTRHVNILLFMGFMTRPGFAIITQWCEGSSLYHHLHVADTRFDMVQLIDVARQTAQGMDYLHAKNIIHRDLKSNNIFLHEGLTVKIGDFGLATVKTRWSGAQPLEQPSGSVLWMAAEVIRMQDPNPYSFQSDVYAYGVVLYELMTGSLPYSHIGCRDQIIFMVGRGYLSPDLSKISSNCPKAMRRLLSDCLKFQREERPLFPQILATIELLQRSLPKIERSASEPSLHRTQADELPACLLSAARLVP
The assay can be described thus: Inhibition of human ARAF assessed as residual activity at 100 uM using MEK1 as substrate by [gamma-33P]-ATP assay relative to control.

In assay [25] the target is T11, Receptor-interacting serine/threonine-protein kinase 3.
Assay [26] deals with T9, Casein kinase II subunit alpha. The assay can be described thus: Inhibition of human CK2A assessed as residual activity at 100 uM using RRRDDDSDDD as substrate by [gamma-33P]-ATP assay relative to control.
The target in assay [27] is T10, Mitogen-activated protein kinase kinase kinase 20. The assay can be described thus: Inhibition of human ZAK assessed as residual activity at 100 uM using MBP as substrate by [gamma-33P]-ATP assay relative to control.
The target in assay [28] is Dual specificity tyrosine-phosphorylation-regulated kinase 4 (Homo sapiens) (UniProt Q9NR20). Description: Inhibition of human DYRK4 assessed as residual activity at 100 uM using RRRFRPASPLRGPPK as substrate by [gamma-33P]-ATP assay relative to control.
For assay [29], the target named is T13, TGF-beta receptor type-2 (Homo sapiens, UniProt P37173). The assay can be described thus: Inhibition of human TGFBR2 assessed as residual activity at 100 uM using MBP as substrate by [gamma-33P]-ATP assay relative to control.
T13 sequence (P37173 whole entry): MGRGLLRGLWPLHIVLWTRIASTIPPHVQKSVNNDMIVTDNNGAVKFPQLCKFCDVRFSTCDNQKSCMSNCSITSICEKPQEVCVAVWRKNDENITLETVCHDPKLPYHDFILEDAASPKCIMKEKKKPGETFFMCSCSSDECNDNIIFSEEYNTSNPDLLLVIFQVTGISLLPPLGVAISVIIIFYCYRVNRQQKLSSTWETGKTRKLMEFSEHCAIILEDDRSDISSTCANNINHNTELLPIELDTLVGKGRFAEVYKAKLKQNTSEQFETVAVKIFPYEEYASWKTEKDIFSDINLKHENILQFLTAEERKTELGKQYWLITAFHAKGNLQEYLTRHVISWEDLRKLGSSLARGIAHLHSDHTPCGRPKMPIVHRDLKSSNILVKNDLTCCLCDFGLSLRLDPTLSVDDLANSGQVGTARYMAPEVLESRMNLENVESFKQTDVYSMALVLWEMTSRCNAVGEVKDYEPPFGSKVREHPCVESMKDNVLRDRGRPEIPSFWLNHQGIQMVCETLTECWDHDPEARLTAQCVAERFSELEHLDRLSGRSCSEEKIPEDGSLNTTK
The target of assay [30] is Activin receptor type-1B (Homo sapiens) (UniProt P36896). The assay can be described thus: Inhibition of human ALK4 assessed as residual activity at 100 uM using casein as substrate by [gamma-33P]-ATP assay relative to control.
In assay [31] the target is T13, TGF-beta receptor type-2.
For assay [32], the target named is Bone morphogenetic protein receptor type-1B (Homo sapiens) (UniProt O00238). Description: Inhibition of human ALK6 assessed as residual activity at 100 uM using casein as substrate by [gamma-33P]-ATP assay relative to control.
Assay [33] deals with Activin receptor type-1-like (Homo sapiens) (UniProt P37023). The assay can be described thus: Inhibition of human ALK1 assessed as residual activity at 100 uM using casein as substrate by [gamma-33P]-ATP assay relative to control.
Assay [34] concerns the target Bone morphogenetic protein receptor type-1A (Homo sapiens) (UniProt P36894). Description: Inhibition of human ALK3 assessed as residual activity at 100 uM using casein as substrate by [gamma-33P]-ATP assay relative to control.
Assay [35] addresses T6, Tau-tubulin kinase 1. The assay can be described thus: Inhibition of human TTBK1 assessed as residual activity at 100 uM using MBP as substrate by [gamma-33P]-ATP assay relative to control.
Assay [36] addresses Tau-tubulin kinase 2 (Homo sapiens) (UniProt Q6IQ55). The assay can be described thus: Inhibition of human TTBK2 assessed as residual activity at 100 uM using MBP as substrate by [gamma-33P]-ATP assay relative to control.
Assay [37] concerns the target Mitogen-activated protein kinase 11 (Homo sapiens) (UniProt Q15759). The assay can be described thus: Inhibition of human p38beta assessed as residual activity at 100 uM using MBP as substrate by [gamma-33P]-ATP assay relative to control.

Molecules are shown by their SMILES. pIC50: −log10 of the molar value. A value given as a limit tells only on which side of the number the result lay.

In general, pIC50 refers to the negative decadic logarithm of the IC50, by convention in mol/L. Read a low pIC50 as a high IC50. Regarding `Cn1cc(C2=C(c3cn(CCCSC(=N)N)c4ccccc34)C(=O)NC2=O)c2ccccc21` [BISINDOLYLMALEIMIDE IX], the pIC50 in [1] was 6.21; in assay [4], 4.79; in assay [5], 6.13; in assay [8], 5.00; in [9] it was 7.28. In addition, the Activity in assay [2], in assay [3], in assay [6] and in [7] was below 65% each time.

Take `CCOc1nc(NC(=O)Cc2cc(OC)ccc2OC)cc(N)c1C#N`: the Activity in assay [10] is below 65%.

For the compound `C=CCn1c(=O)c2cnc(Nc3ccc(N4CCN(C)CC4)cc3)nc2n1-c1cccc(C(C)(C)O)n1` [ADAVOSERTIB], the Activity in [11] and in [12] was below 65% each time. In addition, in assay [13], the pIC50 was 5.64.

On to `Oc1ccc(-c2nc(-c3ccncc3)c(-c3ccc(F)cc3)[nH]2)cc1` [SB-202190], for which the pIC50 against Tau-tubulin kinase 1 [14] was 4.33.

Consider `O=C1Nc2ccc3ncsc3c2/C1=C/c1c[nH]cn1`, for which the pIC50 was 4.22 in assay [15] and 5.14 in assay [18]. For the same compound, the Activity in assay [16] and in [17] was below 65% throughout.

Regarding `O=C1Nc2ccc(I)cc2C1=Cc1cc(Br)c(O)c(Br)c1` [GW305074X], the pIC50 in assay [19] was 6.55; in assay [20] it was 7.84; in [21], 5.72; in [22], 5.36; in assay [25] it was 5.27. For the same compound, the Activity in [23], in assay [24], in [26], in assay [27] and in assay [28] was below 65% each time.

On to `c1ccc2c(-c3cnn4cc(-c5ccc(N6CCNCC6)cc5)cnc34)ccnc2c1`, for which the Activity (at TGF-beta receptor type-2 [29]; in [30]; in assay [32]; in [33]; in [34]) was below 65% in each case. The compound further gave a pIC50 against TGF-beta receptor type-2 [31] of 6.81.

As to `Oc1ccc(-c2nc(-c3ccc(F)cc3)c(-c3ccncc3)[nH]2)cc1`, the Activity (on Tau-tubulin kinase 1 [35]; in assay [36]; in assay [37]) was below 65% in each case.
